Columns and labels:
Assay in all cases: Quantitative fluorescence assay for matrix metalloproteinases (cleavage of Mca-Pro-Leu-Gly-Leu-Dpa-Ala-Arg-NH2)
Format in all cases: biochemical
MMP-9 = target: T1, MMP-9 (Homo sapiens, UniProt P14780)
T1 construct: Das latente Enzym wird durch 30 - 60 min; Inkubation bei 37°C mit 1/100 Vol. Trypsin (10 mg/ml) aktiviert; from tissue; host or cells: human buffy coat (blood leukocytes)
Protocol: Native MMP-9 wurde reproduzierbar und in guter Ausbeute und Reinheit aus humanem Buffy Coat gewonnen. Hierzu wird Buffy Coat mit 10% (v/v) Triton X-100 auf eine Endkonzentration von 0,4% gebracht, 30 min. auf Eis geschüttelt und dann 1 Vol. 2-fach Bindungspuffer (40 mM Tris-HCI pH 7,5, 10 mM CaCl2, 1 M NaCI, 0,2% (v/v) Triton X-100) hinzugefügt und weitere 30 min. auf Eis geschüttelt. Die Lösung wird 15 min. bei 16 000 Upm an einem SS-34 Rotor bei 4°C abzentrifugiert und über Glaswolle filtriert. Das Filtrat wird mit Gelatine-Agarose, welche mit Bindungspuffer äquilibriert wurde, gebatcht und 1 Std. auf Eis geschüttelt. Die beladene Gelatine-Agarose wird in eine Säule überführt und mit mindestens 10 Vol. Bindungspuffer proteinfrei gespült. Die Elution der gebundenen MMP-9 erfolgt mit 2 Gelvolumen Bindungspuffer plus 5% (v/v) DMSO. Das Eluat kann zum Puffer-Austausch und gleichzeitiger Abtrennung geringer Verunreinigungen an MMP-2 über eine Gelfiltration an Sephadex G-75 aufgetrennt werden. Hierzu wird der Puffer I (20 mM Tris-HCI pH 7,5, 5 mM CaCl2, 100 mM NaCI, 0,1% (v/v) Triton X-100) verwendet. Das so gewonnene Eluat enthällt MMP-9 in den drei bekannten Zustandsformen: Monomer, Homodimer, Heterodimer. Die Reinheit des Enzyms beträgt ca. 90%, wobei die restlichen Fremdproteine Fibronektin und äußerst geringe Mengen an TIMP's sind. Das latente Enzym wird durch 30 - 60 min. Inkubation bei 37°C mit 1/100 Vol. Trypsin (10 mg/ml) aktiviert. Trypsin wird durch Zugabe von 1 mM PMSF oder mit einem spezifischen Inhibitor (TKI) gehemmt.
(§1) Durch enzymatische Spaltung des synthetischen Substrates Mca-Pro-Leu-Gly-Leu-Dpa-Ala-Arg-NH2 durch die jeweilige Kollagenase, wird die fluoreszente Gruppe Mca ((7-Methoxycoumarin-4-yl)acetyl) vom internen Quencher Dpa ((N-3-(2,4-dinitrophenyl)-L-2,3-diaminopropienyl) getrennt. Dabei erfolgt eine starke Zunahme der Fluoreszenz im Messansatz, die am Fluorimeter quantifiziert werden kann (λex 328 nm, λem 393 nm) und innerhalb der ersten Minuten linear verläuft. Eine gewisse Spezifität des Tests für Matrix-Metalloproteinasen ergibt sich einerseits aus der Aminosäuresequenz -Pro-Leu-Gly-Leu- im Substrat und andererseits durch die gewählten Inkubationsbedingungen. Matrix-Metalloproteinasen spalten das Substrat an der Bindung Gly-Leu. Gemessen wird die proteolytische Restaktivität vorinkubierter Ansätze von Enzym und Inhibitor, wobei die Substrat- und Enzymkonzentration konstant gehalten und die Inhibitorkonzentration variiert wurde. Es wurden für jeden getesteten Inhibitor drei Messreihen mit unterschiedlicher Substratkonzentration aufgenommen. Aus der zeitabhängigen Fluoreszenzzunahme wird die Enzymaktivität in Fluoreszenzeinheiten pro min berechnet. Die Bestimmung der Ki-Werte erfolgte graphisch nach der Methode von DIXON (1953) durch Auftragung der reziproken Reaktionsgeschwindigkeit 1/v (y-Achse) gegen Inhibitorkonzentration (x-Achse).
(§2) 1984 µl Messpuffer (100mM Tris-HCI pH 7,5, 100 mM NaCI, 10 mM CaCl2, 0,05% Brij 35 bzw. 50 mM MES-NaOH, pH 6.0, 10 mM CaCl2, 100 mM NaCI, 0.05% Brij 35 im Fall der KaDo MMP-3) 2 µl Inhibitor, gelöst in DMSO, bzw. DMSO allein (nichtinhibierender Ansatz) 4 µl Enzym • 5 min. Vorinkubation des Enzym-Inhibitor-Gemischs bei Raumtemperatur unter Rühren • Start der Reaktion mit 10 µl Substrat gelöst in DMSO • Aufzeichnung der zeitabhängigen Fluoreszenzzunahme über 2 - 10 min.

[1] = target: T2, katalytische Domäne der MT1-MMP (Homo sapiens, UniProt P50281)
T2 construct: Die katalytische Domäne der humanen MT1-MMP wurde nach den Angaben in folgender Publikation kloniert; made in house
Protocol: Die katalytische Domäne der humanen MT1-MMP wurde nach den Angaben in folgender Publikation kloniert: Lichte A, Kolkenbrock H, Tschesche H: The recombinant catalytic domain of membrane-type matrix metalloproteinase-1 (MT1-MMP) induces activation of progelatinase A and progelatinase A complexed with TIMP-2. FEBS letters (1996), 397, 277-282.
Nach Rückfaltung des Enyzms, Autoprozessierung zur aktiven Form und Gelfiltration an Sephadex G-50 (Laufpuffer 20 mM Tris-HCI pH 7,5, 5 mM CaCl2, 100 mM NaCI, 0,1 mM ZnCl2, 0,02% (w/v) Natriumazid) erhielten wir ein zu 95% reines Präparat.
as §1, §2

[2] = target: T3, katalytische Domäne der MMP-8 (Homo sapiens, UniProt P22894)
T3 construct: dass wir statt des Gesamtenzyms nur dessen enzymatisch aktive katalytische Domäne in E. coli klonierten; made in house; host or cells: E. coli
Excerpt: Die Nutzung der katalytischen Domäne der MMP-8 als weiteres Testenzym wurde deshalb gewählt, weil es eine hohe Stabilität besitzt und darüber hinaus als aktives Enzym vorliegt. Es muß deshalb nicht aktiviert werden, was eine der häufigsten Fehlerursachen darstellt, da die zur Aktivierung genutzten Quecksilberverbindungen häufig mit dem Testsystem bzw. dem Enzym interferieren und dadurch die Messergebnisse verfälschen werden. Die Klonierungsstrategie gestalteten wir so, dass wir statt des Gesamtenzyms nur dessen enzymatisch aktive katalytische Domäne in E. coli klonierten. Mit der konstruierten katalytischen Domäne der MMP-8 erzielten wir ein stabiles, enzymatisch aktives und hochreines Enzym, welches für die Routineuntersuchungen der inhibitorischen Aktivität der synthetisierten Inhibitoren sehr gut geeignet war und die Messergebnisse der einzelnen Messserien miteinander vergleichbar machte. Die Klonierung und Expression der katalytischen Domäne der MMP-8 wurde entsprechend den Angaben von SCHNIERER et al. (Schnierer S, Kleine T, Gote T, Hillemann A, Knäuper V, Tschesche H: The recombinant catalytic domain of human neutrophil collagenase lacks type I collagen substrate specificity. Biochem Biophys Res Comm (1993) vol. 191 No. 2, 319-326) durchgeführt.
as §1, §2

[3] = result in words, concentration not given

T3 sequence (P22894 100-262 limits assumed): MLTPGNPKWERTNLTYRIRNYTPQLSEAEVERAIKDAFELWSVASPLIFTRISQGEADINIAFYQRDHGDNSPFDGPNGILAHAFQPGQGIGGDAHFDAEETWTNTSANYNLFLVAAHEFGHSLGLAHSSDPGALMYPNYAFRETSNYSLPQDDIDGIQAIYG
T1 sequence (P14780 107-707 limits assumed): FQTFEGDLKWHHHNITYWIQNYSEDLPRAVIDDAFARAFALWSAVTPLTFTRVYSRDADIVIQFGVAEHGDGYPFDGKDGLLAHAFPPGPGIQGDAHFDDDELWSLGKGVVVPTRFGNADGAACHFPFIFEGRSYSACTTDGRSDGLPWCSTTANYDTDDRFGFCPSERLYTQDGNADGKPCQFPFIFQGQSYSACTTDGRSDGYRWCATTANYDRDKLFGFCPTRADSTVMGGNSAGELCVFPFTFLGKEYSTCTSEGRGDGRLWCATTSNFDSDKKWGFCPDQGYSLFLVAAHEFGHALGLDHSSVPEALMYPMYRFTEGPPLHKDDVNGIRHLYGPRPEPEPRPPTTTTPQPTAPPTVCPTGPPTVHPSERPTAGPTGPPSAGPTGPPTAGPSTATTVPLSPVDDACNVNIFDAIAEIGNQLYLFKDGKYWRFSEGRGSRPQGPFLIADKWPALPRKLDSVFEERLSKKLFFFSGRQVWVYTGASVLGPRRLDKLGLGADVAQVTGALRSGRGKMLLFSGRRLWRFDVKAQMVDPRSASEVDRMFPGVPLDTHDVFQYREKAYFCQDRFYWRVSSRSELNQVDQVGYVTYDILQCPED

Structure (SMILES)	MMP-9 Hemmung (MMP-9; bei 10 µM)	MT1-MMP Hemmung ([1]; bei 10 µM)	MMP-8 Hemmung ([2]; bei 10 µM)	also measured
COc1cc2[nH]c(=O)n(CC(S)CS)c(=O)c2cc1OC (racemic) [Beispiel 7, (R,S)-3-(2,3-Dimercaptopropyl)-6,7-dimethoxy-chinazolin-2,4-(1H,3H)dion]	–	–	–	MMP-9 Hemmung (MMP-9; bei 1 µM): 20% Hemmung bei 1 µM; MT1-MMP Hemmung [1, 3]: keine Hemmung; MMP-8 Hemmung ([2]; bei 1 µM): 20% Hemmung bei 1 µM
O=c1[nH]c2ccccc2c(=O)n1CC(S)CS (racemic) [Beispiel 1, (R,S)-3-(2,3-Dimercaptopropyl)chinazolin-2,4-(1H,3H)dion]	70% Hemmung bei 10 µM	40% Hemmung bei 10 µM	70% Hemmung bei 10 µM	–
O=c1[nH]c2sc(-c3ccccc3)cc2c(=O)n1CC(S)CS (racemic) [Beispiel 11, (R,S)-3-(2,3-Dimercaptopropyl)-6-phenylthieno[2,3-d]pyrimidin-2,4(1H,3H)-dion]	–	–	–	MMP-9 Hemmung (MMP-9; bei 1 µM): 15% Hemmung bei 1 µM; MT1-MMP Hemmung [1, 3]: Keine Hemmung; MMP-8 Hemmung ([2]; bei 1 µM): 30% Hemmung bei 1 µM
O=c1[nH]c2cc(Cl)ccc2c(=O)n1CC(S)CS (racemic) [Beispiel 3, (R,S)-7-Chlor-3-(2,3-dimercaptopropyl)chinazolin-2,4-(1H,3H)dion]	83% Hemmung bei 10 µM	73% Hemmung bei 10 µM	87% Hemmung bei 10 µM	–
O=c1[nH]c2ccc(Cl)cc2c(=O)n1CC(S)CS (racemic) [Beispiel 4, (R,S)-6-Chlor-3-(2,3-dimercaptopropyl)chinazolin-2,4-(1H,3H)dion]	50% Hemmung bei 10 µM	60% Hemmung bei 10 µM	60% Hemmung bei 10 µM	–
O=c1[nH]c2ccsc2c(=O)n1CC(S)CS (racemic) [Beispiel 9, (R,S)-3-(2,3-Dimercaptopropyl)thieno[3,2-d]pyrimidin-2,4(1H,3H)-dion]	–	–	–	MMP-9 Hemmung (MMP-9; bei 2,5 µM): 50% Hemmung bei 2,5 µM; MT1-MMP Hemmung ([1]; bei 3 µM): 50% Hemmung bei 3 µM; MMP-8 Hemmung ([2]; bei 2,5 µM): 50% Hemmung bei 2,5 µM
O=C(NCc1ccccc1)c1ccc2c(=O)n(CC(S)CS)c(=O)[nH]c2c1 (racemic) [Beispiel 8, (R,S)-N-Benzyl-3-(2,3-dimercaptopropyl)-2,4-dioxo-1,2,3,4-tetrahydrochinazolin-7-carboxamide]	–	–	–	MMP-9 Hemmung (MMP-9; bei 5 µM): 30% Hemmung bei 5 µM; MT1-MMP Hemmung ([1]; bei 5 µM): 30% Hemmung bei 5 µM; MMP-8 Hemmung ([2]; bei 5 µM): 30% Hemmung bei 5 µM

More lines, main results first:

MMP-9 Hemmung (MMP-9; bei 10 µM)	MT1-MMP Hemmung ([1]; bei 10 µM)	MMP-8 Hemmung ([2]; bei 10 µM)	Structure (SMILES)	also measured
70% Hemmung bei 10 µM	80% Hemmung bei 10 µM	70% Hemmung bei 10 µM	Cc1cccc2[nH]c(=O)n(CC(S)CS)c(=O)c12 (racemic) [Beispiel 5, (R,S)-3-(2,3-Dimercaptopropyl)-5-methyl-chinazolin-2,4-(1H,3H)dion]	–
68% Hemmung bei 10 µM	42% Hemmung bei 10 µM	39% Hemmung bei 10 µM	O=c1[nH]c2sc3c(c2c(=O)n1CC(S)CS)CCCC3 (racemic) [Beispiel 10, (R,S)-3-(2,3-Dimercaptopropyl)-5,6,7,8-tetrahydro[1]benzothieno[2,3-d]pyrimidin-2,4(1H,3H)-dion]	–

From patent EP1357114A1, “Substituted pyrimidin-2,4(1H,3H)-diones as inhibitors of Matrix Metalloproteinases (MMP)” (IBFB GmbH Privates Institut für biomedizinische Forschung …, priority 2002, dated 2003)
